Data reported in patent US12442035B2, “Compositions and methods for detecting antibiotic responsive mRNA expression signatures and uses thereof” (THE BROAD INSTITUTE, INC., priority 2018, dated 2025).
Values after ≈ are worked out from the molar mass of the structure shown. “Also recorded” adds a separate entry of the source. Where two headings read alike, the source gives them in different places.

Key:
[1] = tested on: S. aureus clinical isolates; assay: Standard broth microdilution MIC; type: cell-based; conditions: Staphylococcus aureus, read-out: levo MIC
Description: (§3) All strains in this study (Table 7) were obtained from clinical or reference microbiological laboratories, including both local hospitals and MDRO strain collections from the Centers for Disease Control's Antibiotic Resistance Isolate Bank (see e.g., World Wide Web at (www).cdc.gov/ARIsolateBank/) and the New York State Department of Health.

[2] = tested on: K. pneumoniae clinical isolates; assay: Standard broth microdilution MIC; type: cell-based, Klebsiella pneumoniae
Description: as §3

[3] = tested on: E. coli clinical isolates; assay: Standard broth microdilution MIC; type: cell-based, Escherichia coli; conditions: for MIC: Escherichia coli
Description: as §3

[4] = tested on: K. pneumoniae clinical isolates; assay: RNA-Seq transcriptional response to antibiotic exposure, GO term enrichment; type: cell-based, Klebsiella pneumoniae; conditions: CLSI breakpoint concentration, 0, 10, 30, 60 minutes
Description: (§1) Fisher's combined probability test was used to select only those genes whose expression after antibiotic treatment was statistically distinguishable from its expression at any timepoint in the untreated samples. Gene ontology (GO) terms were assigned using blast2GO (version 1.4.4), with hypergeometric testing for enrichment. For each pathogen-antibiotic pair, the fold-change threshold in DESeq2 used to test statistical significance was increased to select 60-100 antibiotic-responsive transcripts with maximal stringency, a number readily accommodated by the NanoString® assay format. […] As with responsive genes, the fold-change threshold was varied in order to select the top 10-20 control transcripts. […] See Supplemental Methods sections below for further details.
(§2) After antibiotic treatment as described in the above Materials and Methods section, cells were pelleted, resuspended in 0.5 mL Trizol reagent (ThermoFisher Scientific), transferred to 1.5 mL screw-cap tubes containing 0.25 mL of 0.1 mm diameter Zirconia/Silica beads (BioSpec Products), and lysed mechanically via bead-beating for 3-5 one-minute cycles on a Minibeadbeater-16 (BioSpec) or one 90-second cycle at 10 m/sec on a FastPrep (MP Bio). After addition of 0.1 mL chloroform, each sample tube was mixed thoroughly by inversion, incubated for 3 minutes at room temperature, and centrifuged at 12,000×g for 15 minutes at 4° C. […]

[5] = tested on: E. coli clinical isolates; assay: as above; type: cell-based, Escherichia coli; conditions: CLSI breakpoint concentration, 0, 10, 30, 60 minutes
[6] = tested on: A. baumannii clinical isolates; assay: as above; type: cell-based, Acinetobacter baumannii; conditions: CLSI breakpoint concentration, 0, 10, 30, 60 minutes
Description: as §1, §2

Compound: C[C@H]1COc2c(N3CCN(C)CC3)c(F)cc3c(=O)c(C(=O)O)cn1c23 [levofloxacin]
- MIC ([1]; S. aureus strain RB003): 0.125 µg/mL (≈ 0.346 µM)
- MIC ([1]; S. aureus strain RB004): 32 µg/mL (≈ 88.6 µM)
- MIC ([1]; S. aureus strain RB006): 0.06 µg/mL (≈ 0.166 µM)
- MIC ([1]; S. aureus strain RB007): 16 µg/mL (≈ 44.3 µM)
- MIC ([1]; S. aureus strain RB010): > 32 µg/mL
- MIC ([1]; S. aureus strain RB045): 32 µg/mL (≈ 88.6 µM)
- MIC ([1]; S. aureus strain RB047): > 32 µg/mL
- MIC ([1]; S. aureus strain RB064): 8 µg/mL (≈ 22.1 µM)
- MIC ([1]; S. aureus strain RB065): 0.06 µg/mL (≈ 0.166 µM)
- MIC ([1]; S. aureus strain RB066): 0.06 µg/mL (≈ 0.166 µM)
- MIC ([1]; S. aureus strain RB067): 0.13 µg/mL (≈ 0.36 µM)
- MIC ([1]; S. aureus strain RB0069): 0.13 µg/mL (≈ 0.36 µM)
- MIC ([1]; S. aureus strain RB072): 4 µg/mL (≈ 11.1 µM)
- MIC ([1]; S. aureus strain RB074): 32 µg/mL (≈ 88.6 µM)
- MIC ([1]; S. aureus strain RB090): 32 µg/mL (≈ 88.6 µM)
- MIC ([1]; S. aureus strain RB095): 32 µg/mL (≈ 88.6 µM)
- MIC ([1]; S. aureus strain RB096): 0.13 µg/mL (≈ 0.36 µM)
- MIC ([1]; S. aureus strain RB098): 0.13 µg/mL (≈ 0.36 µM)
- MIC ([1]; S. aureus strain RB211): 16 µg/mL (≈ 44.3 µM)
- MIC ([1]; S. aureus strain RB219): 32 µg/mL (≈ 88.6 µM)
- MIC ([1]; S. aureus strain RB221): 0.13 µg/mL (≈ 0.36 µM)
- MIC ([1]; S. aureus strain RB223): 0.13 µg/mL (≈ 0.36 µM)
- MIC ([1]; S. aureus strain RB245): 0.25 µg/mL (≈ 0.692 µM)
- MIC ([1]; S. aureus strain RB247): 0.5 µg/mL (≈ 1.38 µM)

Compound: C[C@@H](O)[C@H]1C(=O)N2C(C(=O)O)=C(S[C@@H]3CN[C@H](C(=O)N(C)C)C3)[C@H](C)[C@H]12 [mero]
- mero MIC ([2]; KpMero strain AR0034): 2 mg/L
- mero MIC ([2]; KpMero strain AR0040): >32 mg/L
- mero MIC ([2]; KpMero strain AR0041): 16 mg/L
- mero MIC ([2]; KpMero strain AR0042): <0.5 mg/L
- mero MIC ([2]; KpMero strain AR0043): 2 mg/L
- mero MIC ([2]; KpMero strain AR0044): 4 mg/L
- mero MIC ([2]; KpMero strain AR0047): 4 mg/L
- mero MIC ([2]; KpMero strain AR0075): 8 mg/L
- mero MIC ([2]; KpMero strain AR0087): 1 mg/L
- mero MIC ([2]; KpMero strain AR0135): 8 mg/L
- mero MIC ([2]; KpMero strain AR0139): 32 mg/L
- mero MIC ([2]; KpMero strain BAA2524 (RB554), value marked *): 0.5* mg/L
- mero MIC ([2]; KpMero strain BIDMC_14): 16 mg/L
- mero MIC ([2]; KpMero strain BIDMC_22): 0.25 mg/L
- mero MIC ([2]; KpMero strain BIDMC_31): 0.125 mg/L
- mero MIC ([2]; KpMero strain BIDMC_35): >32 mg/L
- mero MIC ([2]; KpMero strain BIT-03): 8 mg/L
- mero MIC ([2]; KpMero strain BIT-04): 32 mg/L
- mero MIC ([2]; KpMero strain BIT-05): >32 mg/L
- mero MIC ([2]; KpMero strain BIT-12): <0.5 mg/L
- mero MIC ([2]; KpMero strain BIT-16): ≤0.5 mg/L
- mero MIC ([2]; KpMero strain BWH_2): 16 mg/L
- mero MIC ([2]; KpMero strain BWH_15): 8 mg/L
- mero MIC ([2]; KpMero strain BWH_30): ≤0.5 mg/L
- mero MIC ([2]; KpMero strain BWH_36): 16 mg/L
- mero MIC ([2]; KpMero strain CDC_1500610): ≤0.5 mg/L
- mero MIC ([2]; KpMero strain IDR1200023303): >32 mg/L
- mero MIC ([2]; KpMero strain IDR1600031102-01-00): >32 mg/L
- mero MIC ([2]; KpMero strain IDR1600037310): 1 mg/L
- mero MIC ([2]; KpMero strain IDR1600057468-01-00): 4 mg/L
- mero MIC ([2]; KpMero strain MGH_17): ≤0.5 mg/L
- mero MIC ([2]; KpMero strain MGH_18): ≤0.5 mg/L
- mero MIC ([2]; KpMero strain MGH_19): ≤0.5 mg/L
- mero MIC ([2]; KpMero strain MGH_20): ≤0.5 mg/L
- mero MIC ([2]; KpMero strain MGH_31): 8 mg/L
- mero MIC ([2]; KpMero strain MGH_35): 2 mg/L
- mero MIC ([2]; KpMero strain MGH_36): ≤0.5 mg/L
- mero MIC ([2]; KpMero strain MGH_39): 2 mg/L
- mero MIC ([2]; KpMero strain MGH_48): ≤0.5 mg/L
- mero MIC ([2]; KpMero strain MGH_71): 32 mg/L
- mero MIC ([2]; KpMero strain RB039): ≤0.5 mg/L
- mero MIC ([2]; KpMero strain RB041): ≤0.5 mg/L
- mero MIC ([2]; KpMero strain RB042): ≤0.5 mg/L
- mero MIC ([2]; KpMero strain UCI_7): 0.25 mg/L
- mero MIC ([2]; KpMero strain UCI_19): >32 mg/L
- mero MIC ([2]; KpMero strain UCI_37): 32 mg/L
- mero MIC ([2]; KpMero strain UCI_38): ≤0.5 mg/L
- mero MIC ([2]; KpMero strain UCI_44): 0.25 mg/L
- mero MIC ([2]; KpMero strain UCI_61): 32 mg/L
- mero MIC ([2]; KpMero strain UCI_64): 0.25 mg/L
- mero MIC ([3]; EcMero strain AR0048): 32 mg/L
- mero MIC ([3]; EcMero strain AR0055): 8 mg/L
- mero MIC ([3]; EcMero strain AR0058): 0.25 mg/L
- mero MIC ([3]; EcMero strain AR0061): 8 mg/L
- mero MIC ([3]; EcMero strain AR0069): 16 mg/L
- mero MIC ([3]; EcMero strain AR0077): 0.5 mg/L
- mero MIC ([3]; EcMero strain AR0089): 0.5 mg/L
- mero MIC ([3]; EcMero strain AR0104, value marked *): 1* mg/L
- mero MIC ([3]; EcMero strain BAA2469): 16 mg/L
- mero MIC ([3]; EcMero strain BAA2523 (RB553), value marked *): 0.5* mg/L
- mero MIC ([3]; EcMero strain BIDMC_77): 0.5 mg/L
- mero MIC ([3]; EcMero strain IDR1200024571): >32 mg/L
- mero MIC ([3]; EcMero strain IDR1200039757): >32 mg/L
- mero MIC ([3]; EcMero strain IDR1300027657): 1 mg/L
- mero MIC ([3]; EcMero strain IDR1600029769): 8 mg/L
- mero MIC ([3]; EcMero strain IDR1600035372): 0.5 mg/L

Compound: C[C@@H](O)[C@H]1C(=O)N2C(C(=O)O)=C(S[C@@H]3CN[C@H](C(=O)N(C)C)C3)[C@H](C)[C@H]12 [meropenem]
- MIC ([3]; BAA2523, E. coli BAA2523 (blaOXA-48), inoculum of 10^7 cfu/mL): ≥ 32 µg/mL
- MIC ([3]; BAA2523, E. coli BAA2523 (blaOXA-48), standard broth microdilution, inoculum of 10^5 cfu/mL): 0.5 to 1 µg/mL (≈ 1.3 to 2.61 µM)
- MIC ([3]; E. coli AR0104 (blaKPC-4), inoculum of 10^7 cfu/mL): ≥ 32 µg/mL
- MIC ([3]; E. coli AR0104 (blaKPC-4), standard broth microdilution, inoculum of 10^5 cfu/mL): 0.5 to 1 µg/mL (≈ 1.3 to 2.61 µM)
- Gene ontology enrichment of antibiotic-responsive transcripts [4]: affected lipopolysaccharide biosynthesis
- Gene ontology enrichment of antibiotic-responsive transcripts [5]: affected lipopolysaccharide biosynthesis; also recorded: induced a heat shock response
- Gene ontology enrichment of antibiotic-responsive transcripts [6]: induced a heat shock response
